Data published in ChEMBL document CHEMBL5532744, “2-Aminopyridines as Potent and Selective Nav1.8 Inhibitors Exhibiting Efficacy in a Nonhuman Primate Pain Model” (ACS Med Chem Lett, 2024).
pEC50, pIC50: −log10 of the molar value. In brackets after ≈: the same amount, converted by molar mass.

What was measured:
[1] = target: Sodium channel protein type 5 subunit alpha (Homo sapiens, UniProt Q14524); assay: Inhibition of Nav1.5 (unknown origin)
[2] = target: Sodium channel protein type 8 subunit alpha (Homo sapiens, UniProt Q9UQD0); assay: Inhibition of Nav1.6 (unknown origin)
Sequence of Sodium channel protein type 8 subunit alpha (Q9UQD0 whole entry): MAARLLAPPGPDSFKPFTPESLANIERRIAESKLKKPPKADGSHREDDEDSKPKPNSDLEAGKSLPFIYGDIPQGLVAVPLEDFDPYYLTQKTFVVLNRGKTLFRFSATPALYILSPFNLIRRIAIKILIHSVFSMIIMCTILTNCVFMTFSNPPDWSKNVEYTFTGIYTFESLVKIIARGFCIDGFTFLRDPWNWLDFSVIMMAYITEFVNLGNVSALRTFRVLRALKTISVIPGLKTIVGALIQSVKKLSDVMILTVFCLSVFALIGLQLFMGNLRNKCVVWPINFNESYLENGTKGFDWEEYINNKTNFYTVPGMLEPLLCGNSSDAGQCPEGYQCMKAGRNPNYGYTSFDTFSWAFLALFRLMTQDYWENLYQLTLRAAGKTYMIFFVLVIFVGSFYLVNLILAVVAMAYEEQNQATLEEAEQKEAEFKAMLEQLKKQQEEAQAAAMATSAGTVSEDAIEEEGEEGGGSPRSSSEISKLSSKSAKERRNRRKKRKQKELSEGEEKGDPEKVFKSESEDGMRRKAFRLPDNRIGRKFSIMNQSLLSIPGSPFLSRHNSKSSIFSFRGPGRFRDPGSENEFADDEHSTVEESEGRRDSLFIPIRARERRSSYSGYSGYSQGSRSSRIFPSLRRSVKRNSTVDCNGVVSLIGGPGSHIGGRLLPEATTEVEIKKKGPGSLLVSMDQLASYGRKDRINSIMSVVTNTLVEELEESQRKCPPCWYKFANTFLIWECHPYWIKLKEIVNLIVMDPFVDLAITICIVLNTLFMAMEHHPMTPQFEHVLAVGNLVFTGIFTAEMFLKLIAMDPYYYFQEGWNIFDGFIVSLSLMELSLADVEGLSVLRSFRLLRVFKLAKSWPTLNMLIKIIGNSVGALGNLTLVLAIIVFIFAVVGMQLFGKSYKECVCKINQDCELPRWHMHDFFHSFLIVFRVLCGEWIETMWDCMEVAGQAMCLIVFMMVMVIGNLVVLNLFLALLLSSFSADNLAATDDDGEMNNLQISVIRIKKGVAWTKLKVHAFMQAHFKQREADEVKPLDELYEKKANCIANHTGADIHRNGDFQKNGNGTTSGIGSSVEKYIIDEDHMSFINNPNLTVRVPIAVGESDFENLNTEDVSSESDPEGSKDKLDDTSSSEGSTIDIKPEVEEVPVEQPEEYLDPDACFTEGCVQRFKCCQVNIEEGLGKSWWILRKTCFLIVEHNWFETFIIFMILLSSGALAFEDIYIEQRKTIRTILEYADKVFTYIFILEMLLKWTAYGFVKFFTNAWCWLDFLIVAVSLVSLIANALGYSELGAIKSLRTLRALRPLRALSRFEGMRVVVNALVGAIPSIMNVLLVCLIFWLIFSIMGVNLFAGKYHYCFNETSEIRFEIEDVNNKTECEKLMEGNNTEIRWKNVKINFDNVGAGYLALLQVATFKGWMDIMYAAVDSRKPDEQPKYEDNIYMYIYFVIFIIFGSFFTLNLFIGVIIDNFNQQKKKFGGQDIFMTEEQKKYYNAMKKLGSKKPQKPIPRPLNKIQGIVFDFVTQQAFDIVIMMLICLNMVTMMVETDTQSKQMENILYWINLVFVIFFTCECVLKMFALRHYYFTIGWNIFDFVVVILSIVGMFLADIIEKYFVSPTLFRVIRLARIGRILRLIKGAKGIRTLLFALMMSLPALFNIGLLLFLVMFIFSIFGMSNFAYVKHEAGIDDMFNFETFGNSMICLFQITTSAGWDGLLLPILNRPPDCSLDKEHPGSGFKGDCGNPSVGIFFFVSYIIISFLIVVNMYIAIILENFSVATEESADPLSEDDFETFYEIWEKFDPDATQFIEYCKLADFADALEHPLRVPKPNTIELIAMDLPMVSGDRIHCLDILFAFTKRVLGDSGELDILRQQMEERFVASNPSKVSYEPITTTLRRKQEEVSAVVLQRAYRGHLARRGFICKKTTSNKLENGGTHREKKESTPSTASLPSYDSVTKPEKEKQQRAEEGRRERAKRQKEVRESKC

[3] = target: Sodium channel protein type 10 subunit alpha (Rattus norvegicus, UniProt Q62968); assay: Inhibition of rat neuronal Nav1.8 by patch clamp electrophysiology
[4] = target: Sodium channel protein type 9 subunit alpha (Homo sapiens, UniProt Q15858); assay: Inhibition of Nav1.7 (unknown origin)
[5] = target: Sodium channel protein type 10 subunit alpha (Homo sapiens, UniProt Q9Y5Y9); assay: Inhibition of recombinant human Nav1.8 expressed in HEK293 cells by whole cell patch clamp method; type: cell-based
[6] = Unbound clearance in rat at 0.05 mg/kg, iv administered as cassette dose; type: ADME, organism-based; settings: in vivo
[7] = Half-life in rat plasma at 0.05 mg/kg, iv administered as cassette dose; type: ADME, organism-based
[8] = Solubility of the compound at pH 7; type: physicochemical; settings: buffer
[9] = target: Sodium channel protein type 2 subunit alpha (Homo sapiens, UniProt Q99250); assay: Inhibition of Nav1.2 (unknown origin)
[10] = target: Voltage-gated inwardly rectifying potassium channel KCNH2 (Homo sapiens, UniProt Q12809); assay: Inhibition of hERG; type: toxicity
Sequence of Voltage-gated inwardly rectifying potassium channel KCNH2 (Q12809 whole entry): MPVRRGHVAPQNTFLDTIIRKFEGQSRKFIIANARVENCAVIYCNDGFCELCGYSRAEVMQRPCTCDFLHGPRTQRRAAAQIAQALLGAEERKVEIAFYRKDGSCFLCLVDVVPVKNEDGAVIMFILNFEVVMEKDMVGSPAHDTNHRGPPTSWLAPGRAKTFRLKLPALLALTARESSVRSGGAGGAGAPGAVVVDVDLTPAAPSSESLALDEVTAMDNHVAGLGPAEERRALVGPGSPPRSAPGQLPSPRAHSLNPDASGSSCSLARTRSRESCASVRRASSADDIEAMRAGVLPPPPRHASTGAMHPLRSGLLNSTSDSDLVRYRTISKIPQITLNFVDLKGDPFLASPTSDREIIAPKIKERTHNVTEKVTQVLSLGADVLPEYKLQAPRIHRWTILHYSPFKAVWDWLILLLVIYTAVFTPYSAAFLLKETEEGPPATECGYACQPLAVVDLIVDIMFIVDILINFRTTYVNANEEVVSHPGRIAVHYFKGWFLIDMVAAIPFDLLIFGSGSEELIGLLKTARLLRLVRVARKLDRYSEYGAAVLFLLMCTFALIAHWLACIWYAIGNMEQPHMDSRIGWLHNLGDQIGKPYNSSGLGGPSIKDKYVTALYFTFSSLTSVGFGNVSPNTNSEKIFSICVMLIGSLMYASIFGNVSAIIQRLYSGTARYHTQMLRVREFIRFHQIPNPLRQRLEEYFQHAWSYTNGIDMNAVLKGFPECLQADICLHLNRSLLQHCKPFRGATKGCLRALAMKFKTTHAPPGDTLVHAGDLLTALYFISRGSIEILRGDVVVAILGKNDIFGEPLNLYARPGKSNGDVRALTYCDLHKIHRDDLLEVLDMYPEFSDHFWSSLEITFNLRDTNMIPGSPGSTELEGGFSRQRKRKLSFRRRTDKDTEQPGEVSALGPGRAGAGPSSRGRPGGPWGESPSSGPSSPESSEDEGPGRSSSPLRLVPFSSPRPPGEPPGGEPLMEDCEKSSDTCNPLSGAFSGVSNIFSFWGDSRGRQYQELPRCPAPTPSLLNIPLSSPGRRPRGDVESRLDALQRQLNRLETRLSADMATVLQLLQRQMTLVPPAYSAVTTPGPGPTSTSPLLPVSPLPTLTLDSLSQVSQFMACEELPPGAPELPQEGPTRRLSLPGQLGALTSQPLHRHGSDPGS

[11] = Apparent permeability of compound; type: ADME; settings: not told
[12] = Clearance in rat at 2 mg/kg, iv; type: ADME, organism-based; settings: in vivo
[13] = Unbound clearance in rat at 10 mg/kg, po; type: ADME, organism-based; settings: in vivo
[14] = Volume of distribution in rat at 2 mg/kg, iv; type: ADME, organism-based; settings: in vivo
[15] = Unbound volume of distribution in rat at 10 mg/kg, po; type: ADME, organism-based; settings: in vivo
[16] = Half life in rat at 10 mg/kg, po or 2 mg/kg, iv; type: ADME, organism-based; settings: in vivo
[17] = Tmax in rat at 10 mg/kg, po or 2 mg/kg, iv; type: ADME, organism-based; settings: in vivo
[18] = Bioavailability in rat at 10 mg/kg, po or 2 mg/kg, iv; type: ADME, organism-based; settings: in vivo
[19] = Clearance in dog at 1 mg/kg, iv; type: ADME, organism-based, Canis lupus familiaris; settings: in vivo
[20] = Unbound clearance in dog at 2 mg/kg, po; type: ADME, organism-based, Canis lupus familiaris; settings: in vivo
[21] = Volume of distribution in dog at 1 mg/kg, iv; type: ADME, organism-based, Canis lupus familiaris; settings: in vivo
[22] = Unbound volume of distribution in dog at 2 mg/kg, po; type: ADME, organism-based, Canis lupus familiaris; settings: in vivo
[23] = Half life in dog at 2 mg/kg, po or 1 mg/kg, iv; type: ADME, organism-based, Canis lupus familiaris; settings: in vivo
[24] = Tmax in dog at 2 mg/kg, po or 1 mg/kg, iv; type: ADME, organism-based, Canis lupus familiaris; settings: in vivo
[25] = Bioavailability in dog at 2 mg/kg, po or 1 mg/kg, iv; type: ADME, organism-based, Canis lupus familiaris; settings: in vivo
[26] = Clearance in rhesus monkey at 1 mg/kg, iv; type: ADME, organism-based, Macaca mulatta; settings: in vivo
[27] = Unbound clearance in rhesus monkey at 2 mg/kg, po; type: ADME, organism-based, Macaca mulatta; settings: in vivo
[28] = Volume of distribution in rhesus monkey at 1 mg/kg, iv; type: ADME, organism-based, Macaca mulatta; settings: in vivo
[29] = Unbound volume of distribution in rhesus monkey at 2 mg/kg, po; type: ADME, organism-based, Macaca mulatta; settings: in vivo
[30] = Half life in rhesus monkey at 2 mg/kg, po or 1 mg/kg, iv; type: ADME, organism-based, Macaca mulatta; settings: in vivo
[31] = Tmax in rhesus monkey at 2 mg/kg, po or 1 mg/kg, iv; type: ADME, organism-based, Macaca mulatta; settings: in vivo
[32] = Bioavailability in rhesus monkey at 2 mg/kg, po or 1 mg/kg, iv; type: ADME, organism-based, Macaca mulatta; settings: in vivo
[33] = Drug concentration in rhesus monkey plasma at 2 mg/kg, po; type: ADME, organism-based, Macaca mulatta; settings: in vivo
[34] = Drug concentration in rhesus monkey plasma at 6 mg/kg, po; type: ADME, organism-based, Macaca mulatta; settings: in vivo
[35] = Drug concentration in rhesus monkey plasma at 18 mg/kg, po; type: ADME, organism-based, Macaca mulatta; settings: in vivo
[36] = Unbound drug concentration in rhesus monkey plasma at 2 mg/kg, po; type: ADME, organism-based, Macaca mulatta; settings: in vivo
[37] = Unbound drug concentration in rhesus monkey plasma at 6 mg/kg, po; type: ADME, organism-based, Macaca mulatta; settings: in vivo
[38] = Unbound drug concentration in rhesus monkey plasma at 18 mg/kg, po; type: ADME, organism-based, Macaca mulatta; settings: in vivo
[39] = target: Voltage-dependent L-type calcium channel subunit alpha-1C (Homo sapiens, UniProt Q13936); assay: Inhibition of Cav1.2 (unknown origin)

Sequence of Sodium channel protein type 5 subunit alpha (Q14524 whole entry): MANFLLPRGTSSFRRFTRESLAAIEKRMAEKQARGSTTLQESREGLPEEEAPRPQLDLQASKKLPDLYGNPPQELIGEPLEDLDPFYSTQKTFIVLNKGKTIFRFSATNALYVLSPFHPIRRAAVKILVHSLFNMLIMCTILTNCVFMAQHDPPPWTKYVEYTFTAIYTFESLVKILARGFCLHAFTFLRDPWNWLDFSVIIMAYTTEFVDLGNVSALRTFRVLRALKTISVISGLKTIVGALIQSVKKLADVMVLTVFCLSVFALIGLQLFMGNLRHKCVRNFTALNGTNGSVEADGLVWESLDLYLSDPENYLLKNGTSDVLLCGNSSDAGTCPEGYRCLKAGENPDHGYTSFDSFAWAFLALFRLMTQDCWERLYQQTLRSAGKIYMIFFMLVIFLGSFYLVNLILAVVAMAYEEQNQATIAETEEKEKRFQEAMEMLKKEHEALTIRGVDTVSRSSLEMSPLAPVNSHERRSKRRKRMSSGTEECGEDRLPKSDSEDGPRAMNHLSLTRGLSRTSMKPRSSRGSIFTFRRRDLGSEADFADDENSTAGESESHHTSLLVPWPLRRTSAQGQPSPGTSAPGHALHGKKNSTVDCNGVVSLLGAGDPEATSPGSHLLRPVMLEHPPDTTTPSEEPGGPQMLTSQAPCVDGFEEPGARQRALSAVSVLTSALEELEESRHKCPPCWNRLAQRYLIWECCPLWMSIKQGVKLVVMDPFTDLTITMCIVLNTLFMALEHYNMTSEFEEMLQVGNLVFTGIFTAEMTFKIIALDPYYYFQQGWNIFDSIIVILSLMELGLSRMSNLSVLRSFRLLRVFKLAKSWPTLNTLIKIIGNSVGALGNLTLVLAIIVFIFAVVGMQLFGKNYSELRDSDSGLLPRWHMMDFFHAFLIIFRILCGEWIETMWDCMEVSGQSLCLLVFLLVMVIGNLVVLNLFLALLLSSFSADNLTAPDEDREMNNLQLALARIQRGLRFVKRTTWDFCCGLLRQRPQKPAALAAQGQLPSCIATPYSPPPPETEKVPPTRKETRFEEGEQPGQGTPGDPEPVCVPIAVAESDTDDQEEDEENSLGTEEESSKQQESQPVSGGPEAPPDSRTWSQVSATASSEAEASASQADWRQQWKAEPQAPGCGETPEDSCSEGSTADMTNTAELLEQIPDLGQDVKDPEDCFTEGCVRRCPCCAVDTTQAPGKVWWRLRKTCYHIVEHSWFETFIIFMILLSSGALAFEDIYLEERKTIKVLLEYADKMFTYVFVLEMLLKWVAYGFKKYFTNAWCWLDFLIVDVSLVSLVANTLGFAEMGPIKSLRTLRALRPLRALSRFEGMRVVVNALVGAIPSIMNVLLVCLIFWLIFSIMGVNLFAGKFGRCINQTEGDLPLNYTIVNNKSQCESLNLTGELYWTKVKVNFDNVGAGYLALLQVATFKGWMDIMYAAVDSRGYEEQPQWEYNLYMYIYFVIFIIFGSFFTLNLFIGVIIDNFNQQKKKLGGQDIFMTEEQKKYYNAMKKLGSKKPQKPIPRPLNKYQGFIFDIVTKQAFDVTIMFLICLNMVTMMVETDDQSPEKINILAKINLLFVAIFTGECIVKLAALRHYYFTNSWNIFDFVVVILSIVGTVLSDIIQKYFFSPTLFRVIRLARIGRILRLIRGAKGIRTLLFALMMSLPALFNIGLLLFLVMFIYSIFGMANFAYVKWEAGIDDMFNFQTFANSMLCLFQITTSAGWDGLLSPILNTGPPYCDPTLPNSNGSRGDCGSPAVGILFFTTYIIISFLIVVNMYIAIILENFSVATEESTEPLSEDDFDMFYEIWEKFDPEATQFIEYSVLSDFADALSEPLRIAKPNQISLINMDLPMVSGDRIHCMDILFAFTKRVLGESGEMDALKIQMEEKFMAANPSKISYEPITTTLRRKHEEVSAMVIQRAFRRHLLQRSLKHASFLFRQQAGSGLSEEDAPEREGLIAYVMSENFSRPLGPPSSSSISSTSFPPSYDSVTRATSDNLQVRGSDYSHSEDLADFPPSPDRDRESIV

CC(C)(C)c1cc(C(=O)Nc2cccc(S(N)(=O)=O)c2)n(Cc2ccccc2)n1
pEC50 [1]: < 4.52 | pEC50 [2]: < 4.52 | pIC50 [3]: 7.10 | pIC50 [4]: < 4.52

NS(=O)(=O)c1cccc(NC(=O)c2cc(C(F)(F)F)cnc2N2CCC(F)(F)CC2)c1
pEC50 [5]: 7.38 | CL free [6]: 6 L/h/kg | half-life [7]: 3.3 h | solubility [8]: 150 µM (≈ 69.7 µg/mL) | pEC50 [9]: < 4.52 | pEC50 [1]: < 4.52 | pEC50 [2]: < 4.52 | pIC50 [10]: < 4.52 | Papp [11]: 280 nm/s | clearance [12]: 0.426 L/h/kg | CL free [13]: 6 L/h/kg | Vd [14]: 1.3 L/kg | Vdu [15]: 19 L/kg | half-life [16]: 2.2 h | Tmax [17]: 2.5 h | bioavailability [18]: 82% | clearance [19]: 0.0576 L/h/kg | CL free [20]: 2.4 L/h/kg | Vd [21]: 0.73 L/kg | Vdu [22]: 30 L/kg | half-life [23]: 8.8 h | Tmax [24]: 1.5 h | bioavailability [25]: 45% | clearance [26]: 0.189 L/h/kg | CL free [27]: 3.72 L/h/kg | Vd [28]: 1.68 L/kg | Vdu [29]: 33 L/kg | half-life [30]: 6.6 h | Tmax [31]: 2.5 h | bioavailability [32]: 77% | concentration [33]: 2.18 µM | concentration [34]: 6.11 µM | concentration [35]: 18.6 µM | Cp(f) [36]: 0.111 µM | Cp(f) [37]: 0.312 µM | Cp(f) [38]: 0.948 µM | pIC50 [39]: 4.57

Cc1cc(C(=O)Nc2cccc(S(N)(=O)=O)c2)c(N2CCCCC2)nc1C
pEC50 [5]: 6.49 | CL free [6]: 174 L/h/kg | half-life [7]: 0.57 h | solubility [8]: 11 µM (≈ 4.27 µg/mL)

NS(=O)(=O)c1cccc(NC(=O)c2cc(C(F)(F)F)cnc2N2CCCC2)c1
pEC50 [5]: 5.70 | solubility [8]: 160 µM (≈ 66.3 µg/mL)

CN1CCN(c2nc3ccccc3nc2C(=O)Nc2cccc(S(N)(=O)=O)c2)CC1
pEC50 [5]: < 4.52

NS(=O)(=O)c1cccc(NC(=O)c2cc(C(F)(F)F)cnc2N2CCCCCC2)c1
pEC50 [5]: 7.92 | CL free [6]: 108 L/h/kg | half-life [7]: 0.62 h | solubility [8]: 120 µM (≈ 53.1 µg/mL)

Cc1ccc(C(=O)Nc2cccc(S(N)(=O)=O)c2)c(N2CCCCC2)n1
pEC50 [5]: 6.07 | CL free [6]: 66 L/h/kg | half-life [7]: 0.55 h | solubility [8]: 58 µM (≈ 21.7 µg/mL)

NS(=O)(=O)c1cccc(NC(=O)c2cc(C(F)(F)F)cnc2N2CCCC(F)(F)C2)c1
pEC50 [5]: 6.62 | CL free [6]: 12.6 L/h/kg | half-life [7]: 1.1 h | solubility [8]: 160 µM (≈ 74.3 µg/mL)

NS(=O)(=O)c1cccc(NC(=O)c2cc(C(F)(F)F)cnc2N2CCCCC2)c1
pEC50 [5]: 6.66 | CL free [6]: 22.2 L/h/kg | half-life [7]: 1.5 h | solubility [8]: 120 µM (≈ 51.4 µg/mL)

NS(=O)(=O)c1cccc(NC(=O)c2cccnc2N2CCCCC2)c1
pEC50 [5]: 4.66

CN1CCN(c2nc3ccccc3cc2C(=O)Nc2cccc(S(N)(=O)=O)c2)CC1
pEC50 [5]: 4.70

NS(=O)(=O)c1cccc(NC(=O)c2nc3ccccc3nc2N2CCCCC2)c1
pEC50 [5]: 6.96

NS(=O)(=O)c1cccc(NC(=O)c2ccc(C(F)(F)F)nc2N2CCCCC2)c1
pEC50 [5]: 6.54 | CL free [6]: 78 L/h/kg | half-life [7]: 0.89 h | solubility [8]: 91 µM (≈ 39 µg/mL)

NS(=O)(=O)c1cccc(NC(=O)c2cc(C(F)(F)F)cnc2N2CCCC(F)(F)CC2)c1
CL free [6]: 36 L/h/kg | half-life [7]: 1.1 h | solubility [8]: 110 µM (≈ 52.6 µg/mL)

NS(=O)(=O)c1cccc(NC(=O)c2cc3ccccc3nc2N2CCOCC2)c1
pEC50 [5]: 5.70

NS(=O)(=O)c1cccc(NC(=O)c2cc(C(F)(F)F)cnc2N2CCCC3(CC3)C2)c1
pEC50 [5]: 7.47 | CL free [6]: 108 L/h/kg | half-life [7]: 0.72 h | solubility [8]: 68 µM (≈ 30.9 µg/mL)

NS(=O)(=O)c1cccc(NC(=O)c2cc(C(F)(F)F)cnc2N2CCC3(CC2)CC3)c1
pEC50 [5]: 7.49 | CL free [6]: 15 L/h/kg | half-life [7]: 2.8 h | solubility [8]: 53 µM (≈ 24.1 µg/mL)

COc1ccccc1NC(=O)c1nc2ccccc2nc1N1CCCCC1
pEC50 [1]: < 4.52 | pEC50 [2]: < 4.52 | pIC50 [3]: 4.68 | pIC50 [4]: < 4.52

Cc1cnc(N2CCCCC2)c(C(=O)Nc2cccc(S(N)(=O)=O)c2)c1
pEC50 [5]: 4.85 | solubility [8]: 14 µM (≈ 5.24 µg/mL)
